From ChEMBL document CHEMBL1122963, “[3H]Batrachotoxinin A 20 alpha-benzoate binding to voltage-sensitive sodium channels: a rapid and quantitative assay for local anesthetic activity in a variety of drugs” (J Med Chem, 1985)

Assays:
[1] = molecular target: T1, Sodium channel alpha subunits; brain (Types I, II, III) (Homo sapiens, UniProt P35498+Q99250+Q9NY46); conditions: Cavia porcellus; Cerebral cortex; at 10 µM
[2] = molecular target: T1, Sodium channel alpha subunits; brain (Types I, II, III); assay: Inhibition of binding of Batrachotoxinin [3H]BTX-B to high affinity sites on voltage dependent sodium channels in a vesicular preparation from guinea pig cerebral cortex; assay type: tissue-based, Cavia porcellus

T1 sequence (Q99250 whole entry, looked up, other chains not shown): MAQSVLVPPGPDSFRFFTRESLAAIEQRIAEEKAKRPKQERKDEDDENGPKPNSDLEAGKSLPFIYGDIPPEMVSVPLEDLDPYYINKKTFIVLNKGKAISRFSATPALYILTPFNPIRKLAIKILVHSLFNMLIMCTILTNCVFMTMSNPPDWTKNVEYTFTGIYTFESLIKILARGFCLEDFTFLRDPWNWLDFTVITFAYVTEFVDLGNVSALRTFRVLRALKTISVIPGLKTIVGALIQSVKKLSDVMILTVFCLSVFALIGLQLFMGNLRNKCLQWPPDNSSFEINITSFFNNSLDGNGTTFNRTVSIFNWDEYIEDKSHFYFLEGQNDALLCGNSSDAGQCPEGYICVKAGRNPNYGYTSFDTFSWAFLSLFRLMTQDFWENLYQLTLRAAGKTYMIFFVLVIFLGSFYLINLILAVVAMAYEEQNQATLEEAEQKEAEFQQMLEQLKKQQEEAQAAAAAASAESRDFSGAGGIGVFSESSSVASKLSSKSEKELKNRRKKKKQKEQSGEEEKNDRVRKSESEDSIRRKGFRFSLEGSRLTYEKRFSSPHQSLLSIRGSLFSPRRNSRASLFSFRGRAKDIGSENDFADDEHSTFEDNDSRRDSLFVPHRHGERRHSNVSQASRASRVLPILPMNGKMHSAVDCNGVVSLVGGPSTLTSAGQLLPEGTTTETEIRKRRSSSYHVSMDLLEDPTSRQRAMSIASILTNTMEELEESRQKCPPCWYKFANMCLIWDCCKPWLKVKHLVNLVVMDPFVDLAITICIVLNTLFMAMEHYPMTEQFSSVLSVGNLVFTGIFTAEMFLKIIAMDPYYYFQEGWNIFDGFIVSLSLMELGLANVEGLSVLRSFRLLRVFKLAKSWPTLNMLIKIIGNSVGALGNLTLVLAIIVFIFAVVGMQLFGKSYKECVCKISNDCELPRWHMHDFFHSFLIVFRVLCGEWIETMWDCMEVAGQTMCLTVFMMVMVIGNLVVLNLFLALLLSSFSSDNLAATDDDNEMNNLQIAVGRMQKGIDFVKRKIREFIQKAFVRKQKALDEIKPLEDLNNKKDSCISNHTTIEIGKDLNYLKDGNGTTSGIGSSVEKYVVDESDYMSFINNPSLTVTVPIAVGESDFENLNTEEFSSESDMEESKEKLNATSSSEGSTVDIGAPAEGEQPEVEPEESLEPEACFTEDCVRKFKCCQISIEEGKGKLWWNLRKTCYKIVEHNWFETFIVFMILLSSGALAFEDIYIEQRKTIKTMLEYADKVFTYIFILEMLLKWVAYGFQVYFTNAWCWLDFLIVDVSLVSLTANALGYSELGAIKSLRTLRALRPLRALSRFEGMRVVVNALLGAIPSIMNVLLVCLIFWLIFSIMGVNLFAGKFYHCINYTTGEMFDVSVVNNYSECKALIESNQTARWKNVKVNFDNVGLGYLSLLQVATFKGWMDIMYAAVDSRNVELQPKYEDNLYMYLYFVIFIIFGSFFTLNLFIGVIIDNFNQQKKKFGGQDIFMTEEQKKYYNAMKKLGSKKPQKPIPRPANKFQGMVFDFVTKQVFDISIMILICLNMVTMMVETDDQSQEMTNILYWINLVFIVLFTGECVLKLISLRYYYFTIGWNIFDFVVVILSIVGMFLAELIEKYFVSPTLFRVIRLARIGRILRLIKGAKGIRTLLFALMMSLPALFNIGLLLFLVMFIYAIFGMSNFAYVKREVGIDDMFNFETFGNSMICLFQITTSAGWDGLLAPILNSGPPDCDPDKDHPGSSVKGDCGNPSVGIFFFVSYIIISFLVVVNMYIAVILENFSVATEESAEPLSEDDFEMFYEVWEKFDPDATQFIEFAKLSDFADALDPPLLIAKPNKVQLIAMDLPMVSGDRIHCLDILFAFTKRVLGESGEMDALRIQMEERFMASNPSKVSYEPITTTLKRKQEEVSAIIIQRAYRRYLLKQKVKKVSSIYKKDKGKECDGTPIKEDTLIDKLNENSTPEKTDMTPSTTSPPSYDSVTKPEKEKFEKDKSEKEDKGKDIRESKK
T1 sequence (Q9NY46 whole entry, looked up, other chains not shown): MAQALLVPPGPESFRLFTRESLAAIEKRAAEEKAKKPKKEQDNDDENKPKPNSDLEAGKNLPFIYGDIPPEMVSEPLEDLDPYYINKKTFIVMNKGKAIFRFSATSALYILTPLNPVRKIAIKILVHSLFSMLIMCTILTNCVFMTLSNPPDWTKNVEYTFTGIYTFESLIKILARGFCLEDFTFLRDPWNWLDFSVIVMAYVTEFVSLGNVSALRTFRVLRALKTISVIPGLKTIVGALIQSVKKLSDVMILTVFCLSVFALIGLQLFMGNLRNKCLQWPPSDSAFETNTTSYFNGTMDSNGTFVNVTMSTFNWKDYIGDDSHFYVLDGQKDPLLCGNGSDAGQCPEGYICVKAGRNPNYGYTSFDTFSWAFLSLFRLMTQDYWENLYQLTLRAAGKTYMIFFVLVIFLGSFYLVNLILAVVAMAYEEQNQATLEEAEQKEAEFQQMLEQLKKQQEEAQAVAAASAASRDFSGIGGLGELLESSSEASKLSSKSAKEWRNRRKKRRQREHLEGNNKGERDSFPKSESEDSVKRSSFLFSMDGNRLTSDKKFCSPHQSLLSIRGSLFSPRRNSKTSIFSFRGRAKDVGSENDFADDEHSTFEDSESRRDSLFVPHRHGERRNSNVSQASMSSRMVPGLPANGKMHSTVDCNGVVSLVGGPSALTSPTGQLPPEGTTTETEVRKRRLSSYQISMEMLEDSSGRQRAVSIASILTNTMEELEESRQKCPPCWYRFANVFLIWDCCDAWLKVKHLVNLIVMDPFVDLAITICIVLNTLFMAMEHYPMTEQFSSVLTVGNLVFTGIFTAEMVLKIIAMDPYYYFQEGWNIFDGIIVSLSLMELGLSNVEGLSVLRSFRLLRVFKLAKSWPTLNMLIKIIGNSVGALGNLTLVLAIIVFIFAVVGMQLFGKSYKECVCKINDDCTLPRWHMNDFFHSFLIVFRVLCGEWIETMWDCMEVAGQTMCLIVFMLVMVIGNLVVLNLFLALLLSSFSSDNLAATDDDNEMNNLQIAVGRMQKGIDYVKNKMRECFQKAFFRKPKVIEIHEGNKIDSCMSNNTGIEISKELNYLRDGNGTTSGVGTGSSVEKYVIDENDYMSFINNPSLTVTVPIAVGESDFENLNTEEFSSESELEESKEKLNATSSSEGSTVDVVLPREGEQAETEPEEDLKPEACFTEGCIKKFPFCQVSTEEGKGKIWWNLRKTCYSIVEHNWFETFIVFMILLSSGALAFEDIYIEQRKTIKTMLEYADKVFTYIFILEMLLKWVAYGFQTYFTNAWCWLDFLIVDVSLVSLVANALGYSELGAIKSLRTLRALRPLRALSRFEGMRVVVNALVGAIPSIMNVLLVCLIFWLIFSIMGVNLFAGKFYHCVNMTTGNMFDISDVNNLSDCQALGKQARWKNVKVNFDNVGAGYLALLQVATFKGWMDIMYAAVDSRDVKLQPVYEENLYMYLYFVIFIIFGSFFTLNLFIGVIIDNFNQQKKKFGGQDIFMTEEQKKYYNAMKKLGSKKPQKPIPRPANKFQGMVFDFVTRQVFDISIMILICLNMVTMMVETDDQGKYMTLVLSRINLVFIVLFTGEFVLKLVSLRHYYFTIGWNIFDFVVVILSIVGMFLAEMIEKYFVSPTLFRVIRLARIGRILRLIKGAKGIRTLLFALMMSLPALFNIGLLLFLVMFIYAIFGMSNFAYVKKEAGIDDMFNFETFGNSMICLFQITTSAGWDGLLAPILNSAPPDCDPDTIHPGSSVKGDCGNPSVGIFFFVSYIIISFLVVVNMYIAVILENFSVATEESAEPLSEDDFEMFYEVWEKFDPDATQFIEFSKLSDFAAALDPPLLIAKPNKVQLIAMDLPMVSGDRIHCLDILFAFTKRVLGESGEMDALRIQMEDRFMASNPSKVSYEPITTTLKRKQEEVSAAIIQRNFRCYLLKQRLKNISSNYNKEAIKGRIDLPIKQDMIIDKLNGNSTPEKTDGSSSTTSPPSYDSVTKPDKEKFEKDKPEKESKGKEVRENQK

## CN1CC[C@]23CCCC[C@H]2[C@H]1Cc1ccc(O)cc13 [LEVORPHANOL]
[1]
  inhibition: 33%
[2]
  IC50: 25 µM

## CN(C)C(=O)C(CCN1CCC(O)(c2ccc(Cl)cc2)CC1)(c1ccccc1)c1ccccc1 [LOPERAMIDE]
[1]
  inhibition: 100%
[2]
  IC50: 0.27 µM

## CCCNC(C)(C)COC(=O)c1ccccc1 [MEPRYLCAINE]
[1]
  inhibition: 57.6%
[2]
  IC50: 7.6 µM

## CN1CCN2c3ccccc3Cc3ccccc3C2C1 (centres undefined) [MIANSERIN]
[1]
  inhibition: 57.4%
[2]
  IC50: 5.5 µM

## Cl.NCCCCCCNS(=O)(=O)c1cccc2c(Cl)cccc12 [N-AMINOHEXYL-5-CHLORO-1-NAPTHALENESULFONAMIDE HYDROCHLORIDE]
[1]
  inhibition: 46.8%
[2]
  IC50: 12 µM

## COC(=O)C1=C(C)NC(C)=C(C(=O)OCC(C)C)C1c1ccccc1[N+](=O)[O-] (centres undefined) [NISOLDIPINE]
[1]
  inhibition: 25.9%
[2]
  IC50: 26 µM

## CCOC(=O)C1=C(C)NC(C)=C(C(=O)OC)C1c1cccc([N+](=O)[O-])c1 (centres undefined) [NITRENDIPINE]
[1]
  inhibition: 23.1%
[2]
  IC50: 36 µM

## CNCCC=C1c2ccccc2CCc2ccccc21 [NORTRIPTYLINE]
[1]
  inhibition: 69.4%
[2]
  IC50: < 10 µM

## CN(C(=O)CN(CCO)CC(=O)N(C)C(C)(C)Cc1ccccc1)C(C)(C)Cc1ccccc1 [OXETHAZAINE]
[1]
  inhibition: 83.9%
[2]
  IC50: 2.3 µM

## CCOc1ccc(C(=O)OCCN(CC)CC)cc1 [PARETHOXYCAINE]
[1]
  inhibition: 33.2%
[2]
  IC50: 24 µM

## CCOc1ccc(/N=C(\C)Nc2ccc(OCC)cc2)cc1 [PHENACAINE]
[1]
  inhibition: 81.1%
[2]
  IC50: 1.7 µM

## CN(C)CCC(c1ccccc1)c1ccccn1 (centres undefined) [PHENIRAMINE]
[1]
  inhibition: 24.9%
[2]
  IC50: 33 µM

## Cc1ccc(N(CC2=NCCN2)c2cccc(O)c2)cc1 [PHENTOLAMINE]
[1]
  inhibition: 54.6%
[2]
  IC50: 8.4 µM

## C=C(C)[C@@H]1[C@H]2OC(=O)[C@@H]1[C@]1(O)C[C@H]3OC34C(=O)O[C@H]2[C@@]41C.CC(C)(O)[C@@H]1[C@H]2OC(=O)[C@@H]1[C@]1(O)C[C@H]3OC34C(=O)O[C@H]2[C@@]41C (some centres undefined) [PICROTOXIN]
[1]
  inhibition: 22.7%
[2]
  IC50: 700 µM

## CC1CCCCN1CCCOC(=O)c1ccccc1 (centres undefined) [PIPEROCAINE]
[1]
  inhibition: 43.6%
[2]
  IC50: 13 µM

## COc1cc2nc(N3CCN(C(=O)c4ccco4)CC3)nc(N)c2cc1OC [PRAZOSIN]
[1]
  inhibition: 58.6%
[2]
  IC50: 10.1 µM

## CC(Cc1ccccc1)NCCC(c1ccccc1)c1ccccc1 (centres undefined) [PRENYLAMINE]
[1]
  inhibition: 98.8%
[2]
  IC50: 0.3 µM

## CCCC(C(=O)OCCN(CC)CC)(c1ccccc1)c1ccccc1 [PROADIFEN]
[1]
  inhibition: 75.4%
[2]
  IC50: 4.2 µM

## CCN(CC)CCOC(=O)c1ccc(N)cc1 [PROCAINE]
[1]
  inhibition: 47.3%
[2]
  IC50: 110 µM

## CN(C)CCCN1c2ccccc2Sc2ccccc21 [PROMAZINE]
[1]
  inhibition: 65.3%
[2]
  IC50: 5.4 µM

## CC(CN1c2ccccc2Sc2ccccc21)N(C)C (centres undefined) [PROMETHAZINE]
[1]
  inhibition: 61%
[2]
  IC50: 6.9 µM

## CCCOc1ccc(C(=O)OCCN(CC)CC)cc1N [PROPARACAINE]
[1]
  inhibition: 79.9%
[2]
  IC50: 1.9 µM

## CCCOc1cc(N)ccc1C(=O)OCCN(CC)CC [PROPOXYCAINE]
[1]
  inhibition: 30%
[2]
  IC50: 24 µM

## CNCCCC1c2ccccc2C=Cc2ccccc21 [PROTRIPTYLINE]
[1]
  inhibition: 70.3%
[2]
  IC50: < 10 µM

## CCN(CC)CCCC(C)Nc1c2ccc(Cl)cc2nc2ccc(OC)cc12 (centres undefined) [QUINACRINE]
[1]
  inhibition: 73.3%
[2]
  IC50: 3.3 µM

## COC(=O)[C@H]1[C@H]2C[C@@H]3c4[nH]c5cc(OC)ccc5c4CCN3C[C@H]2C[C@@H](OC(=O)c2cc(OC)c(OC)c(OC)c2)[C@@H]1OC [RESERPINE]
[1]
  inhibition: 100%
[2]
  IC50: 1.6 µM

## O=C1C[C@@H]2OCC=C3CN4CC[C@]56c7ccccc7N1[C@H]5[C@H]2[C@H]3C[C@H]46 [STRYCHNINE]
[1]
  inhibition: 35.7%
[2]
  IC50: 21 µM
